Reference: patent publication US10865191B2, “Heterocyclic compounds useful as modulators of TNF alpha” (BRISTOL-MYERS SQUIBB COMPANY, priority 2015, dated 2020)
pIC50: −log10 of the molar value.

Molecular target: TNFα (Homo sapiens, UniProt P01375)
Assay: TNF induced HEK-Blue assay (NF-kB-driven secreted alkaline phosphatase reporter)
Assay type: cell-based
Settings: TNF induced HEK-Blue assay IC50 value, TNFα 0.5 ng/mL, HEK-Blue-CD40L cells, 18 h
Method in brief: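 HEK-Blue-CD40L cells (NF-kB-driven SEAP reporter), 20,000/well, added after 30 min pre-incubation of compound (0.004–25 μM final) with TNFα 0.5 ng/mL final at 37 °C; 18 h incubation. SEAP read with QUANTI-Blue at 620 nm; IC50 from 4-parameter logistic fit, normalized to unstimulated and stimulated DMSO controls.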

Sequence of TNFα (P01375 77-233 limits assumed): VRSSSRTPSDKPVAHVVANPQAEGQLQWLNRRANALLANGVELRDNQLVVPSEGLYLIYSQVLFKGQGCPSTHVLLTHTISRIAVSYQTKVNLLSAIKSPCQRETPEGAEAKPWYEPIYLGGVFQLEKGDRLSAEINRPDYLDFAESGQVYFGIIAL

Row | SMILES | pIC50
1 | CC(Nc1c(Cl)cnc2c(F)cc(-c3cnc(C(C)(C)O)nc3)cc12)c1ccccc1F (racemic) [Example 247, 2-(5-(3-chloro-8-fluoro-4-((1-(2-fluorophenyl)ethyl)amino)quinolin-6-yl)pyrimidin-2-yl)propan-2-ol] | > 6.00
2 | CC(Nc1c(Cl)cnc2ccc(-c3cnc(C(C)(C)O)nc3)c(Cl)c12)c1ccccc1F (racemic) [Example 296, 2-(5-(3,5-dichloro-4-((1-(2-fluorophenyl)ethyl)amino)quinolin-6-yl)pyrimidin-2-yl)propan-2-ol] | > 6.00

Same assay, conditions: TNFα 0.5 ng/mL, HEK-Blue-CD40L cells, 18 h; read-out: TNF induced HEK-Blue assay IC50 value

Row | SMILES | pIC50
3 | CC(C)(O)c1ncc(-c2nc3c(NC(c4ccccc4)C(F)F)c(Cl)cnc3cc2F)cn1 (racemic) [Example 212, 2-(5-(7-chloro-8-((2,2-difluoro-1-phenylethyl)amino)-3-fluoro-1,5-naphthyridin-2-yl)pyrimidin-2-yl)propan-2-ol] | > 6.00
4 | Cc1nc2cc(F)c(-c3cnc(C(C)(C)O)nc3)nc2c(NC(c2ccccc2)C(F)F)c1Cl (racemic) [Example 214, 2-(5-(7-chloro-8-((2,2-difluoro-1-phenylethyl)amino)-3-fluoro-6-methyl-1,5-naphthyridin-2-yl)pyrimidin-2-yl)propan-2-ol] | > 6.00
5 | C=Cc1cccc(C(Nc2c(Cl)cnc3cc(F)c(-c4cnc(C(C)(C)O)nc4)nc23)C(F)F)c1 (racemic) [Example 216, 2-(5-(7-chloro-8-((2,2-difluoro-1-(3-vinylphenyl)ethyl)amino)-3-fluoro-1,5-naphthyridin-2-yl)pyrimidin-2-yl) propan-2-ol] | > 6.00
6 | Cc1nc2ccc(-c3cnc(C(C)(C)O)nc3)cc2c(NC(C)c2ccccc2F)c1Cl (racemic) [Example 218, 2-(5-(3-chloro-4-((1-(2-fluorophenyl)ethyl)amino)-2-methylquinolin-6-yl)pyrimidin-2-yl)propan-2-ol] | > 6.00
7 | CC(C)(O)c1ncc(-c2ccc3ncc(Cl)c(NC(c4ccccc4F)C(C)(C)F)c3c2)cn1 (racemic) [Example 229, 2-(5-(3-chloro-4-((2-fluoro-1-(2-fluorophenyl)-2-methylpropyl)amino)quinolin-6-yl)pyrimidin-2-yl)propan-2-ol] | 4.60 to 5.00
8 | CC(C)(O)c1ncc(-c2ccc3ncc(Cl)c(NC(CCF)c4ccccc4F)c3c2)cn1 (racemic) [Example 230, 2-(5-(3-chloro-4-((3-fluoro-1-(2-fluorophenyl)propyl)amino)quinolin-6-yl)pyrimidin-2-yl) propan-2-ol] | > 6.00
9 | CC(Nc1c(Cl)cnc2ncc(-c3ccc(C(C)(C)O)cc3)cc12)c1ccccc1F (racemic) [Example 231, 2-(4-(6-chloro-5-((1-(2-fluorophenyl)ethyl)amino)-1,8-naphthyridin-3-yl)phenyl)propan-2-ol] | 4.60 to 5.00
10 | CC(C)(O)c1ccc(-c2ccc3ncc(Cl)c(NC(CCF)c4ccccc4F)c3c2)cc1 (racemic) [Example 232, 2-(4-(3-chloro-4-((3-fluoro-1-(2-fluorophenyl)propyl)amino)quinolin-6-yl)phenyl)propan-2-ol] | > 6.00
11 | CC(Nc1c(Cl)cnc2cc(F)c(-c3cnc(C(C)(C)O)nc3)nc12)c1cccc(N)c1 (racemic) [Example 239, 2-(5-(8-((1-(3-aminophenyl)ethyl)amino)-7-chloro-3-fluoro-1,5-naphthyridin-2-yl)pyrimidin-2-yl)propan-2-ol] | > 6.00
12 | CC(Nc1c(Cl)cnc2cc(F)c(-c3ccc(C4(O)CCC(C(=O)O)CC4)cc3)cc12)c1ccccc1F (racemic) [Example 251, 4-(4-(3-chloro-7-fluoro-4-((1-(2-fluorophenyl)ethyl)amino)quinolin-6-yl)phenyl)-4-hydroxycyclohexane-1-carboxylic acid] | > 6.00
13 | CC(Nc1c(Cl)cnc2ccc(-c3cnc(C(C)(C)O)nc3)c(F)c12)c1ccccc1F (racemic) [Example 253, 2-(5-(3-chloro-5-fluoro-4-((1-(2-fluorophenyl)ethyl)amino)quinolin-6-yl)pyrimidin-2-yl)propan-2-ol] | > 6.00
14 | CC(Nc1c(Cl)cnc2cc(F)c(-c3ccc(C4(CO)CC4)cc3)cc12)c1ccccc1F (racemic) [Example 264, (1-(4-(3-chloro-7-fluoro-4-((1-(2-fluorophenyl)ethyl)amino)quinolin-6-yl)phenyl)cyclopropyl)methanol] | > 6.00
15 | CC(Nc1c(Cl)cnc2cc(F)c(-c3cnc(N4CCC(CC(=O)O)CC4)nc3)cc12)c1ccccc1F (racemic) [Example 266, 2-(1-(5-(3-chloro-7-fluoro-4-((1-(2-fluorophenyl)ethyl)amino)quinolin-6-yl)pyrimidin-2-yl)piperidin-4-yl)acetic acid] | > 6.00
16 | CC(Nc1c(Cl)cnc2cc(F)c(-c3cc(F)c(C(C)(C)O)c(F)c3)cc12)c1ccccc1F (racemic) [Example 267, 2-(4-(3-chloro-7-fluoro-4-((1-(2-fluorophenyl)ethyl)amino)quinolin-6-yl)-2,6-difluorophenyl)propan-2-ol] | > 6.00
17 | CC(Nc1ccnc2cc(F)c(-c3cnc(C4(O)CCOCC4)nc3)cc12)c1ccccc1F (racemic) [Example 287, 4-(5-(7-fluoro-4-((1-(2-fluorophenyl)ethyl)amino)quinolin-6-yl)pyrimidin-2-yl)tetrahydro-2H-pyran-4-ol] | 4.60 to 5.00
18 | CC(Nc1c(Cl)cnc2cc(F)c(-c3cnc(C(C)(C)O)cn3)cc12)c1ccccc1F (racemic) [Example 294, 2-(5-(3-chloro-7-fluoro-4-((1-(2-fluorophenyl)ethyl)amino)quinolin-6-yl)pyrazin-2-yl)propan-2-ol] | > 6.00
19 | Cc1nc2c(F)cc(-c3cnc(C(C)(C)O)nc3)cc2c(NC(C)c2ccccc2F)c1Cl (racemic) [Example 298, 2-(5-(3-chloro-8-fluoro-4-((1-(2-fluorophenyl)ethyl)amino)-2-methylquinolin-6-yl)pyrimidin-2-yl)propan-2-ol] | > 6.00
20 | CC(Nc1c(Cl)cnc2cc(F)c(-c3cnc(C(O)CO)nc3)cc12)c1ccccc1F (racemic) [Example 300, 1-(5-(3-chloro-7-fluoro-4-((1-(2-fluorophenyl)ethyl)amino)quinolin-6-yl)pyrimidin-2-yl)ethane-1,2-diol] | > 6.00
21 | Cc1nc2c(F)cc(-c3cnc(C(C)(C)O)nc3)cc2c(NC(C)c2ccc(F)cc2)c1Cl (racemic) [Example 301, 2-(5-(3-chloro-8-fluoro-4-((1-(4-fluorophenyl)ethyl)amino)-2-methylquinolin-6-yl)pyrimidin-2-yl)propan-2-ol] | 4.60 to 5.00
22 | Cc1nc2ccc(-c3ccc(C(C)(C)O)cc3)cc2c(NC(C)c2ccccc2F)c1Cl (racemic) [Example 308, 2-(4-(3-chloro-4-((1-(2-fluorophenyl)ethyl)amino)-2-methylquinolin-6-yl)phenyl) propan-2-ol] | > 6.00
23 | Cc1nc2ccc(-c3cnc(N4CCN(CC(=O)O)CC4)nc3)cc2c(NC(C)c2ccccc2F)c1Cl (racemic) [Example 309, 2-(4-(5-(3-chloro-4-((1-(2-fluorophenyl)ethyl)amino)-2-methylquinolin-6-yl)pyrimidin-2-yl)piperazin-1-yl)acetic acid] | > 6.00
24 | Cc1nc2ccc(-c3cnc(N4CCS(=O)(=O)CC4)nc3)cc2c(NC(C)c2ccccc2F)c1Cl (racemic) [Example 310, 4-(5-(3-chloro-4-((1-(2-fluorophenyl)ethyl)amino)-2-methylquinolin-6-yl)pyrimidin-2-yl)thiomorpholine 1,1-dioxide] | > 6.00
25 | Cc1nc2ccc(-c3cnc(N4CCOCC4)nc3)cc2c(NC(C)c2ccccc2F)c1Cl (racemic) [Example 311, 3-chloro-N-(1-(2-fluorophenyl)ethyl)-2-methyl-6-(2-morpholinopyrimidin-5-yl)quinolin-4-amine] | > 6.00
26 | Cc1nc2ccc(-c3cnc(C(C)(C)O)nc3)cc2c(NC(C)c2cc(F)ccc2F)c1Cl (racemic) [Example 317, 2-(5-(3-chloro-4-((1-(2,5-difluorophenyl)ethyl)amino)-2-methylquinolin-6-yl)pyrimidin-2-yl)propan-2-ol] | > 6.00
27 | CCCC(C)C(=O)c1c(Cl)c(C)nc2ccc(-c3cnc(C(C)(C)O)nc3)cc12 (racemic) [Example 356, ± 1-(3-Chloro-6-(2-(2-hydroxypropan-2-yl)pyrimidin-5-yl)-2-methylquinolin-4-yl)-2-methylpentan-1-one] | 4.60 to 5.00
28 | Cc1nc2ccc(-c3cnc(C(C)(C)O)nc3)cc2c(N[C@@H](c2cc(C(N)CO)ccc2F)C(F)F)c1Cl (mixture of isomers) [Example 434, 2-(5-(4-(((1 S)-1-(5-(1-amino-2-hydroxyethyl)-2-fluorophenyl)-2,2-difluoroethyl)amino)-3-chloro-2-methylquinolin-6-yl)pyrimidin-2-yl)propan-2-ol] | > 6.00
29 | CC(Nc1c(Cl)cnc2ccc(-c3cnc(N4CCNC(=O)C4)nc3)cc12)c1nc(C(N)=O)ccc1F (single isomer, unassigned) [Example 25, 6-(1-((3-chloro-6-(2-(3-oxopiperazin-1-yl)pyrimidin-5-yl)quinolin-4-yl)amino)ethyl)-5-fluoropicolinamide] | 5.00 to 6.00
30 | CC(Nc1c(Cl)cnc2ccc(-c3cnc(N4CCNC(=O)C4)nc3)cc12)c1nc(C(N)=O)ccc1F (single isomer, unassigned) [Example 26, 6-(1-((3-chloro-6-(2-(3-oxopiperazin-1-yl)pyrimidin-5-yl)quinolin-4-yl)amino)ethyl)-5-fluoropicolinamide] | > 6.00
31 | CC(C)(O)c1ncc(-c2ccc3ncc(Cl)c(NC(c4ccccc4F)C(F)F)c3c2)cn1 (single isomer, unassigned) [Example 55, 2-(5-(3-chloro-4-((2,2-difluoro-1-(2-fluorophenyl)ethyl)amino)quinolin-6-yl)pyrimidin-2-yl)propan-2-ol] | > 6.00
32 | CC(C)(O)c1ncc(-c2ccc3ncc(Cl)c(NC(c4ccccc4F)C(F)F)c3c2)cn1 (single isomer, unassigned) [Example 55a] | > 6.00
